From patent USRE42890E1, “Furazanobenzimidazoles” (Basilea Pharmaceutica AG, priority 2003, dated 2011)

Tested on: HT1080
Experiment: MTS proliferation assay, HT1080
Format: cell-based, human
Details: HT1080, 72 h incubation; read-out: MTS proliferation assay IC 50 HT1080
Method in brief: (§1)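 Absorbance at 492 nm after 3 h with MTS reagent gave proliferation. This followed 72 h compound exposure (final 0.3, 1, 3, 10 μM) at 37 °C and 7.5% CO2. Cells had been plated 24 h earlier in complete RPMI-1640 with 5% or 10% FCS.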

Row | Compound | IC50 [µM]
1 | Nc1nonc1-c1nc2ccccc2n1CC(=O)c1cccs1 [Example 72] | 0.1 to 1
2 | Nc1ccc(OCn2c(-c3nonc3N)nc3ccccc32)cc1 [Example 99] | > 1
3 | Nc1nonc1-c1nc2ccccc2n1CC(=O)c1ccc(F)cc1 [Example 67] | 0.1 to 1

Tested on: Jurkat
Experiment: MTS proliferation assay, Jurkat
Format: cell-based, human
Details: 72 h incubation, read-out: MTS proliferation assay IC 50 Jurkat
Method in brief: as §1

Row | Compound | IC50 [µM]
4 | Nc1nonc1-c1nc2ccccc2n1CC(=O)c1cccs1 [Example 72] | 0.1 to 1
5 | Nc1ccc(OCn2c(-c3nonc3N)nc3ccccc32)cc1 [Example 99] | 0.1 to 1
6 | Nc1nonc1-c1nc2ccccc2n1CC(=O)c1ccc(F)cc1 [Example 67] | 0.1 to 1

Tested on: adherent cells or suspension cells
Experiment: Hoechst 33342 nuclear staining (fraction of apoptotic nuclei)
Format: cell-based
Parameters: key: 0 relating to no activity; 1 relating to weak activity comprising less than 70% of the cells; score 2 relating to strong activity comprising more than 70% of the cells
Details: H460, conc 0.01 μm

Row | Compound | Hoechst 33342 nuclear staining score
7 | Nc1nonc1-c1nc2ccccc2n1CC(=O)c1cccs1 [Example 72] | 0
8 | Nc1ccc(OCn2c(-c3nonc3N)nc3ccccc32)cc1 [Example 99] | 0
9 | Nc1nonc1-c1nc2ccccc2n1CC(=O)c1ccc(F)cc1 [Example 67] | 0

Same assay, conditions: H460, conc 0.1 μm

Row | Compound | Hoechst 33342 nuclear staining score
10 | Nc1nonc1-c1nc2ccccc2n1CC(=O)c1cccs1 [Example 72] | 0
11 | Nc1ccc(OCn2c(-c3nonc3N)nc3ccccc32)cc1 [Example 99] | 0
12 | Nc1nonc1-c1nc2ccccc2n1CC(=O)c1ccc(F)cc1 [Example 67] | 0

Same assay, conditions: H460, conc 1 μm

Row | Compound | Hoechst 33342 nuclear staining score
13 | Nc1nonc1-c1nc2ccccc2n1CC(=O)c1cccs1 [Example 72] | 2 (score 2 relating to strong activity comprising more than 70% of the cells)
14 | Nc1ccc(OCn2c(-c3nonc3N)nc3ccccc32)cc1 [Example 99] | 0
15 | Nc1nonc1-c1nc2ccccc2n1CC(=O)c1ccc(F)cc1 [Example 67] | 2 (score 2 relating to strong activity comprising more than 70% of the cells)

Same assay, conditions: HeLa, conc 0.01 μm

Row | Compound | Hoechst 33342 nuclear staining score
16 | Nc1nonc1-c1nc2ccccc2n1CC(=O)c1cccs1 [Example 72] | 0
17 | Nc1ccc(OCn2c(-c3nonc3N)nc3ccccc32)cc1 [Example 99] | 0
18 | Nc1nonc1-c1nc2ccccc2n1CC(=O)c1ccc(F)cc1 [Example 67] | 0

Same assay, conditions: HeLa, conc 0.1 μm

Row | Compound | Hoechst 33342 nuclear staining score
19 | Nc1nonc1-c1nc2ccccc2n1CC(=O)c1cccs1 [Example 72] | 0
20 | Nc1ccc(OCn2c(-c3nonc3N)nc3ccccc32)cc1 [Example 99] | 0
21 | Nc1nonc1-c1nc2ccccc2n1CC(=O)c1ccc(F)cc1 [Example 67] | 0

Same assay, conditions: HeLa, conc 1 μm

Row | Compound | Hoechst 33342 nuclear staining score
22 | Nc1nonc1-c1nc2ccccc2n1CC(=O)c1cccs1 [Example 72] | 2 (score 2 relating to strong activity comprising more than 70% of the cells)
23 | Nc1ccc(OCn2c(-c3nonc3N)nc3ccccc32)cc1 [Example 99] | 0
24 | Nc1nonc1-c1nc2ccccc2n1CC(=O)c1ccc(F)cc1 [Example 67] | 2 (score 2 relating to strong activity comprising more than 70% of the cells)

Same assay, conditions: Jily, conc 0.01 μm

Row | Compound | Hoechst 33342 nuclear staining score
25 | Nc1nonc1-c1nc2ccccc2n1CC(=O)c1cccs1 [Example 72] | 0
26 | Nc1ccc(OCn2c(-c3nonc3N)nc3ccccc32)cc1 [Example 99] | 0
27 | Nc1nonc1-c1nc2ccccc2n1CC(=O)c1ccc(F)cc1 [Example 67] | 0

Same assay, conditions: Jily, conc 0.1 μm

Row | Compound | Hoechst 33342 nuclear staining score
28 | Nc1nonc1-c1nc2ccccc2n1CC(=O)c1cccs1 [Example 72] | 0
29 | Nc1ccc(OCn2c(-c3nonc3N)nc3ccccc32)cc1 [Example 99] | 0
30 | Nc1nonc1-c1nc2ccccc2n1CC(=O)c1ccc(F)cc1 [Example 67] | 2 (score 2 relating to strong activity comprising more than 70% of the cells)

Same assay, conditions: Jily, conc 1 μm

Row | Compound | Hoechst 33342 nuclear staining score
31 | Nc1nonc1-c1nc2ccccc2n1CC(=O)c1cccs1 [Example 72] | 2 (score 2 relating to strong activity comprising more than 70% of the cells)
32 | Nc1ccc(OCn2c(-c3nonc3N)nc3ccccc32)cc1 [Example 99] | 1 (1 relating to weak activity comprising less than 70% of the cells)
33 | Nc1nonc1-c1nc2ccccc2n1CC(=O)c1ccc(F)cc1 [Example 67] | 2 (score 2 relating to strong activity comprising more than 70% of the cells)

Same assay, conditions: Jurkat, conc 0.01 μm

Row | Compound | Hoechst 33342 nuclear staining score
34 | Nc1nonc1-c1nc2ccccc2n1CC(=O)c1cccs1 [Example 72] | 0
35 | Nc1ccc(OCn2c(-c3nonc3N)nc3ccccc32)cc1 [Example 99] | 0
36 | Nc1nonc1-c1nc2ccccc2n1CC(=O)c1ccc(F)cc1 [Example 67] | 0

Same assay, conditions: Jurkat, conc 0.1 μm

Row | Compound | Hoechst 33342 nuclear staining score
37 | Nc1nonc1-c1nc2ccccc2n1CC(=O)c1cccs1 [Example 72] | 1 (1 relating to weak activity comprising less than 70% of the cells)
38 | Nc1ccc(OCn2c(-c3nonc3N)nc3ccccc32)cc1 [Example 99] | 0
39 | Nc1nonc1-c1nc2ccccc2n1CC(=O)c1ccc(F)cc1 [Example 67] | 2 (score 2 relating to strong activity comprising more than 70% of the cells)

Same assay, conditions: Jurkat, conc 1 μm

Row | Compound | Hoechst 33342 nuclear staining score
40 | Nc1nonc1-c1nc2ccccc2n1CC(=O)c1cccs1 [Example 72] | 2 (score 2 relating to strong activity comprising more than 70% of the cells)
41 | Nc1ccc(OCn2c(-c3nonc3N)nc3ccccc32)cc1 [Example 99] | 1 (1 relating to weak activity comprising less than 70% of the cells)
42 | Nc1nonc1-c1nc2ccccc2n1CC(=O)c1ccc(F)cc1 [Example 67] | 2 (score 2 relating to strong activity comprising more than 70% of the cells)

Same assay, conditions: MRC5, conc 0.01 μm

Row | Compound | Hoechst 33342 nuclear staining score
43 | Nc1nonc1-c1nc2ccccc2n1CC(=O)c1cccs1 [Example 72] | 0
44 | Nc1ccc(OCn2c(-c3nonc3N)nc3ccccc32)cc1 [Example 99] | 0
45 | Nc1nonc1-c1nc2ccccc2n1CC(=O)c1ccc(F)cc1 [Example 67] | 0

Same assay, conditions: MRC5, conc 0.1 μm

Row | Compound | Hoechst 33342 nuclear staining score
46 | Nc1nonc1-c1nc2ccccc2n1CC(=O)c1cccs1 [Example 72] | 0
47 | Nc1ccc(OCn2c(-c3nonc3N)nc3ccccc32)cc1 [Example 99] | 0
48 | Nc1nonc1-c1nc2ccccc2n1CC(=O)c1ccc(F)cc1 [Example 67] | 0

Same assay, conditions: MRC5, conc 1 μm

Row | Compound | Hoechst 33342 nuclear staining score
49 | Nc1nonc1-c1nc2ccccc2n1CC(=O)c1cccs1 [Example 72] | 0
50 | Nc1ccc(OCn2c(-c3nonc3N)nc3ccccc32)cc1 [Example 99] | 0
51 | Nc1nonc1-c1nc2ccccc2n1CC(=O)c1ccc(F)cc1 [Example 67] | 1 (1 relating to weak activity comprising less than 70% of the cells)

Same assay, conditions: PBLs, conc 0.01 μm

Row | Compound | Hoechst 33342 nuclear staining score
52 | Nc1nonc1-c1nc2ccccc2n1CC(=O)c1cccs1 [Example 72] | 0
53 | Nc1ccc(OCn2c(-c3nonc3N)nc3ccccc32)cc1 [Example 99] | 0
54 | Nc1nonc1-c1nc2ccccc2n1CC(=O)c1ccc(F)cc1 [Example 67] | 0

Same assay, conditions: PBLs, conc 0.1 μm

Row | Compound | Hoechst 33342 nuclear staining score
55 | Nc1nonc1-c1nc2ccccc2n1CC(=O)c1cccs1 [Example 72] | 0
56 | Nc1ccc(OCn2c(-c3nonc3N)nc3ccccc32)cc1 [Example 99] | 0
57 | Nc1nonc1-c1nc2ccccc2n1CC(=O)c1ccc(F)cc1 [Example 67] | 0

Same assay, conditions: PBLs, conc 1 μm

Row | Compound | Hoechst 33342 nuclear staining score
58 | Nc1nonc1-c1nc2ccccc2n1CC(=O)c1cccs1 [Example 72] | 0
59 | Nc1ccc(OCn2c(-c3nonc3N)nc3ccccc32)cc1 [Example 99] | 0
60 | Nc1nonc1-c1nc2ccccc2n1CC(=O)c1ccc(F)cc1 [Example 67] | 0

Tested on: MRC5
Experiment: MTS proliferation assay, MRC5
Format: cell-based
Details: MRC5, 72 h incubation; read-out: MTS proliferation assay IC 50 MRC5
Method in brief: (§2)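 Antiproliferative read-out by MTS (3 h, A492) after 72 h compound exposure at final 0.3–10 μM (four concentrations). Cells were plated 24 h earlier in RPMI-1640 containing 5% or 10% FCS, cultured at 37 °C with 7.5% CO2.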

Row | Compound | IC50 [µM]
61 | Nc1nonc1-c1nc2ccccc2n1CC(=O)c1cccs1 [Example 72] | 0.1 to 1
62 | Nc1ccc(OCn2c(-c3nonc3N)nc3ccccc32)cc1 [Example 99] | > 1
63 | Nc1nonc1-c1nc2ccccc2n1CC(=O)c1ccc(F)cc1 [Example 67] | 0.1 to 1

Tested on: Jily
Experiment: MTS proliferation assay, Jily
Format: cell-based
Details: 72 h incubation, read-out: MTS proliferation assay IC 50 Jily
Method in brief: as §2

Row | Compound | IC50 [µM]
64 | Nc1nonc1-c1nc2ccccc2n1CC(=O)c1cccs1 [Example 72] | 0.1 to 1
65 | Nc1ccc(OCn2c(-c3nonc3N)nc3ccccc32)cc1 [Example 99] | 0.1 to 1
66 | Nc1nonc1-c1nc2ccccc2n1CC(=O)c1ccc(F)cc1 [Example 67] | 0.01 to 0.1

Tested on: HeLa
Experiment: MTS proliferation assay, HeLa
Format: cell-based, human
Details: 72 h incubation, read-out: MTS proliferation assay IC 50 HeLa
Method in brief: as §1

Row | Compound | IC50 [µM]
67 | Nc1nonc1-c1nc2ccccc2n1CC(=O)c1cccs1 [Example 72] | 0.1 to 1
68 | Nc1ccc(OCn2c(-c3nonc3N)nc3ccccc32)cc1 [Example 99] | > 1
69 | Nc1nonc1-c1nc2ccccc2n1CC(=O)c1ccc(F)cc1 [Example 67] | 0.1 to 1
